Assay results: ChEMBL document CHEMBL5252564, “It's ok to be outnumbered - sub-stoichiometric modulation of homomeric protein complexes” (RSC Med Chem, 2023)
Each block holds one compound with its values, some of them ahead of it. Peptide text beside a SMILES is read from it. * marks the point of attachment. X1 = CC(C)[C@H](N*)B(O)O

Tests used:
[1] = biological target: T1, ATP-dependent Clp protease proteolytic subunit (Staphylococcus aureus (strain NCTC 8325)) (UniProt Q2G036); experiment: Inhibition of Staphylococcus aureus ClpP assessed as active site modification at 1 uM treated for 1 hr by mass spectrometry analysis relative to control
T1 sequence (whole entry): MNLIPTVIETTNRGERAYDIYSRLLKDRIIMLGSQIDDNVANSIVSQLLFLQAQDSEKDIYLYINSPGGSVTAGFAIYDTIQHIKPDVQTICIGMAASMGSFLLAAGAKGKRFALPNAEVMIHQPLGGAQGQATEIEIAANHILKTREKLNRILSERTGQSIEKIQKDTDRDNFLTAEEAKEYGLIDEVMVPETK

[2] = Binding affinity to Escherichia coli DegP using SPMFKGV-pNA as substrate at activated state by isothermal titration calorimetry
[3] = Binding affinity to Escherichia coli DegP using SPMFKGV-pNA as substrate at resting state by isothermal titration calorimetry
[4] = biological target: Programmed cell death 1 ligand 1 (Homo sapiens) (UniProt Q9NZQ7)
Sequence of Programmed cell death 1 ligand 1 (Homo sapiens) (Q9NZQ7 whole entry): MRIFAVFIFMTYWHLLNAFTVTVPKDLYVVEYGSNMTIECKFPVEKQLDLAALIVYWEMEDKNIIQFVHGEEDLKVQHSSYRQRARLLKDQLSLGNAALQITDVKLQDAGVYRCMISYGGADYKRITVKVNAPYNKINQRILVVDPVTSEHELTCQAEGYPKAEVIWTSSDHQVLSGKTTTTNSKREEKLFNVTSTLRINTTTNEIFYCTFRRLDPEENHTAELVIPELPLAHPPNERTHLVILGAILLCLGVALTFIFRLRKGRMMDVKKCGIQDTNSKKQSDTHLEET
Description: Binding affinity to human PD-L1 (18 to 134 residues) expressed in Escherichia coli BL21(DE3) assessed as thermal stabilization by measuring melting temperature by DSF assay

- inhibition [1]: 35%
Compound: C#CCCC[C@H]1OC(=O)[C@@H]1c1ccc(OC)cc1

- inhibition [1]: 63%
Compound: C#Cc1ccc(C(=O)C2CN(C(=O)CCCCCCCCC=C)S2(=O)=O)cc1 (stereo not given)

Compound: CSCC[C@H](NC(=O)[C@@H]1CCCN1C(=O)[C@@H](N)CC(=O)O)C(=O)N[C@@H](Cc1ccccc1)C(=O)N[C@@H](CCCCN)C(=O)N[C@@H](CC(C)C)C(=O)N[C@H](B(O)O)C(C)C (H-DPMFKL-X1)
- Kd [2]: 33 nM
- Kd [3]: 6 µM

Compound: COc1nc(OCc2cccc(-c3ccccc3)c2C)ccc1CNCCNC(C)=O
- ΔTm [4]: 13 °C
